Reference: US20180289666A1, “FLAVONOLIGNANS FOR TREATMENT OF AUTOIMMUNE INFLAMMATORY DISEASES” (Macau University of Science and Technology, priority 2017, published 2018)

Key:
AIA rats = assay: Plasma metabolomics by LC-MS/MS in AIA rats; format: in vivo, Sprague-Dawley (SD) rats
Procedure: (§1) The plasma sample (200 μL) was thawed on ice for 5 min prior to sample preparation and was mixed with 200 μL of 10 mM N-ethylmaleimide (NEM) in PBS buffer solution and 1000 μL of methanol containing internal standard (I.S.) Phe-d5 in 10 ng/ml. This mixture was incubated at −20° C. for 20 min, and then centrifuged at 12000 rpm for 10 min at 4° C. The supernatant was completely dried under nitrogen flow (Pressure Blowing Concentrator, Tokyo Rikakika, Tokyo, Japan) and reconstituted with distilled water.
LC-MS/MS analysis was performed on A Waters ACQUITY UPLC coupled with a 4000 Q-TRAP mass spectrometer. Chromatographic separation was carried on a Waters X Bridge™ BEH C18 analytical column (2.5 μm, 3.0×100 mm; Waters, Torrance, Calif.) with a mobile phase composed of 0.1% formic acid water (solvent A) and methanol (solvent B) which was running in a gradient program: 0-3.0 min (0%-1% B); 3.0-10.0 min (1-3% B); 10.0-14.0 min (3-50% B); 14.0-18.0 min (50-95% B); 18.0-22.0 min (95-0% B); followed by a 3-min re-equilibration step. The injection volume was 10 μl at 4° C. and flow rate was 0.6 ml/min. Electrospray (ESI) source were used in both positive and negative ion mode. […]
The normalized data were exported and further processed by PCA and PLS-DA using a multivariate analysis package SIMCA-P software (Umea, Sweden). Model quality was evaluated based on the relevant values of R^2 and Q^2. […]

[1] = tested on: MCD diet induced NASH mice; assay: MCD diet induced NASH mice: body and liver weight, liver histology, serum and liver biomarkers; format: in vivo, C57Bl/6 mice; settings: for Ballooning (histological score) / Inflammation (histological score) / Steatosis (histological score): MCD diet induced NASH mice, n = 6-8
Procedure: Male wild-type (WT) mice C57Bl/6 were fed either MCS chow diet (Trophic Animal Feed High-tech Co., Ltd, China 20, #TP 3005GS); MCD diet (Trophic Animal Feed High-tech Co., Ltd, China, #TP 3005G) for 8 weeks. Animals were randomly divided into four groups (n=10): 1) controls, fed a standard control MCS diet; 2) […] fed a high-fat MCD diet; 3) rats fed the MCD diet treated with Silybin (150 mg/kg, oral) and 4) rats fed the MCD diet treated with Silybin (300 mg/kg, oral). Silybin was dissolved with solvent of 35% PEG400: 15% Cremophor EL: 5% ethanol: 45% saline. Body weight was intermittently monitored during the diet-induction period and every two or three days during the intervention period.
At the end of the 8 weeks, mice were sacrificed under ether anesthesia. The liver were immediately removed and weighed. A large portion of liver was snap-frozen in the liquid N2 with remaining tissue was fixed in 10% buffer formalin, processed and embedded in paraffin for histological examination after H&E staining. For evaluation of steatohepatitis, the level of ALT, AST, TG, and TC were determined according to manufacturer's instructions with commercial kits. Moreover, histological assessment and scoring according to standardized criteria were carried out by a pathologist blinded to the study (Kleiner, D. E., et al., Hepatology, 2005, 41(6): p. 1313-21). The cytokines levels in serum were measured using commercially available ELISA kits including TNF-α, and IL-6 as well as SOD.

[2] = tested on: MCD diet induced NASH mice; assay: Plasma metabolomics by LC-MS/MS in MCD diet induced NASH mice; format: in vivo, C57Bl/6 mice; settings: Silybin 300 mg/kg, * P < 0.05, ** P < 0.01
Procedure: as §1
LC-MS/MS analysis was performed on A Waters ACQUITY UPLC coupled with a 4000 Q-TRAP mass spectrometer. Chromatographic separation was carried on a Waters X Bridge™ BEH C18 analytical column (2.5 μm, 3.0×100 mm; Waters, Torrance, Calif.) with a mobile phase composed of 0.1% formic acid water (solvent A) and methanol (solvent B) which was running in a gradient program: 0-3.0 min (0%-1% B); 3.0-10.0 min (1-3% B); 10.0-14.0 min (3-50% B); 14.0-18.0 min (50-95% B); 18.0-22.0 min (95-0% B); followed by a 3-min re-equilibration step. The injection volume was 10 μl at 4° C. and flow rate was 0.6 ml/min. Electrospray (ESI) source were used in both positive and negative ion mode. The source parameters were set as follows: gas temperature: 450° C.; the ion spray voltage, ±4500 V; ion source gas 1 (nebulizer gas) 40 psi (N2); ion source gas 2 (auxiliary gas), 40 psi (N2); curtain gas: 20 psi. The MS/MS analysis was acquired in targeted MS/MS (MRM) mode with the collision energy ranging from 10 V to 40 V. All UPLC-MS data were obtained by AB Analyst Software (Version 1.6.2). Table 1 lists the 72 metabolites that are identified in the plasma samples from both AIA and MCD-diet induced NASH animal studies. The intensity of each ion was normalized with respect to peak area of I.S. for each chromatogram prior to multivariate statistical analysis.
The normalized data were exported and further processed by PCA and PLS-DA using a multivariate analysis package SIMCA-P software (Umea, Sweden). Model quality was evaluated based on the relevant values of R^2 and Q^2. Potential markers of interest were extracted from the values of variable importance in the projections (VIP>1), which were constructed from PLS-DA analysis. P values were obtained from Student's t-test (P<0.05). Hierarchical clustering analysis (HCA) was performed using bioinformatics software Multi Experiment Viewer (The Institute of Genomic Research, MA, USA) for visualization and organization of metabolite profiles.
Plasma samples of MCD-diet model were analyzed by LC-MS/MS for better understanding the functional metabolism in NASH model as well as the mechanism of Silybin treatment. […] OPLS-DA (R^2X=0.877, Q^2=0.749) was also used to identify and rank signature metabolites explaining most of the variance of metabolomes among the control, model and treatment group based on VIP scores and/or P value (FIG. 9). Unsupervised hierarchical clustering of this metabolite set classified NASH vs. control mice with 100% accuracy in both cohorts. A 15-metabolite signature with top-ranked VIP scores (VIP>1.0) separated control, model and Silybin treatment groups (p<0.05) was identified in Table 18 that distinguish each groups.

[3] = MCD diet NASH mice, versus vehicle treated MCD diet model group

COc1cc([C@H]2Oc3cc([C@H]4Oc5cc(O)cc(O)c5C(=O)[C@@H]4O)ccc3O[C@@H]2CO)ccc1O (stereo in doubt) [Silybin]
metabolic network (plasma metabolites) (AIA rats): effectively repair the metabolic network | body weight ([1]; MCD diet NASH mice, Silybin 300 mg/kg): no effect | liver/body weight ratio ([1]; MCD diet NASH mice, Silybin 300 mg/kg, P<0.05): moderate decrease | scores of steatosis, inflammation and ballooning ([1]; MCD diet NASH mice, Silybin treated versus MCD diet group, P<0.01): lower scores | cytokines levels [1, 3]: significantly restored | lipid profiles [1, 3]: significantly restored | oxidative stress levels [1, 3]: significantly restored | serum transaminase [1, 3]: significantly restored | Ballooning (histological score) ([1]; Silybin 150 mg/kg oral): 0.96 ± 0.04 | Inflammation (histological score) ([1]; Silybin 150 mg/kg oral): 0.92 ± 0.10 | Steatosis (histological score) ([1]; Silybin 150 mg/kg oral): 1.00 ± 0 | Ballooning (histological score) ([1]; Silybin 300 mg/kg oral): 0.83 ± 0.09 | Inflammation (histological score) ([1]; Silybin 300 mg/kg oral): 0.88 ± 0.12 | Steatosis (histological score) ([1]; Silybin 300 mg/kg oral): 0.92 ± 0.13 | Trend SB300 VS Model: Malondialdehyde (MDA) [2]: ↓** | Trend SB300 VS Model: 4-(2-aminophenyl)-2,4-dioxobutanoic acid ([2]; plasma): ↓* | Trend SB300 VS Model: 5-hydroxytryptamine ([2]; plasma): ↓** | Trend SB300 VS Model: GSH ([2]; plasma): ↑* | Trend SB300 VS Model: GSH/GSSG ([2]; plasma): ↑* | Trend SB300 VS Model: GSSG ([2]; plasma): ↓* | Trend SB300 VS Model: Glycochenodeoxycholic acid(GCDCA) ([2]; plasma): ↓* | Trend SB300 VS Model: L-Kynurenine ([2]; plasma): ↑** | Trend SB300 VS Model: LPC(16:1) ([2]; plasma): ↓* | Trend SB300 VS Model: LPC(18:0) ([2]; plasma): ↑* | Trend SB300 VS Model: LPC(20:1) ([2]; plasma): ↑* | Trend SB300 VS Model: LPC(22:6) ([2]; plasma): ↑* | Trend SB300 VS Model: N-Phenylacetylglycine ([2]; plasma): ↓* | Trend SB300 VS Model: Ophthalmic acid ([2]; plasma): ↓* | Trend SB300 VS Model: Oxaloacetate ([2]; plasma): ↑* | Trend SB300 VS Model: Proline ([2]; plasma): ↓* | Trend SB300 VS Model: Trigonelline ([2]; plasma): ↑** | Trend SB300 VS Model: Uric acid ([2]; plasma): ↓** | Trend SB300 VS Model: Uridine ([2]; plasma): ↓** | Trend SB300 VS Model: Ursodeoxycholic acid (UDCA) ([2]; plasma): ↓*
